Tests used:
Assay in all cases: weeding effect in post-emergence stage
Type in all cases: in vivo
Alopecurus japonicus = tested on: Alopecurus japonicus
Excerpt: (§1) The activity level criteria for plant damage (i.e., growth control rate) are as follows: • Level 5: growth control rate is above 85%; • Level 4: growth control rate is greater than or equal to 60% and less than 85%; • Level 3: growth control rate is greater than or equal to 40% and less than 60%; • Level 2: growth control rate is greater than or equal to 20% and less than 40%; • Level 1: growth control rate is greater than or equal to 5% and less than 20%; • Level 0: growth control rate is less than 5%.
(§2) The above growth control rates are fresh weight control rates.
(§3) Experiment on weeding effect in post-emergence stage:
(§4) Monocotyledonous and dicotyledonous weed seeds (Descurainia sophia, Capsella bursa-pastoris, Abutilon theophrasti, Galium aparine, Stellaria media, Lithospermum arvense, Rorippa indica, Alopecurus aequalis, Alopecurus japonicus, Beckmannia syzigachne, Sclerochloa dura, Conyza Canadensis, Phleum paniculatum, Veronica didyma Tenore, Bromus japonicus, Aegilops tauschii, Phalaris arundinacea, Amaranthus retroflexus, Chenopodium album, Commelina communis, Sonchus arvensis, Convolvulus arvensis, Cirsium setosum, Solanum nigrum, Acalypha australis, Digitaria sanguinalis, Echinochloa crusgalli, Setaria viridis, Setaria glauca, Leptochloa chinensis, Monochoria vaginalis, Sagittaria trifolia, Scirpus juncoides, Cyperus rotundus, Cyperus iria, Cyperus difformis, Fimbristylis, Portulaca oleracea, Xanthium sibiricum, Pharbitis nil, Conyza japonica, etc.) and major crop seeds (wheat, corn, rice, soybean, cotton, oilseed rape, millet, sorghum, potato, sesame, ricinus, etc.) were placed in plastic pots filled with soil, then covered with 0.5-2 cm of soil, allowed to grow in a good greenhouse environment. After 2 weeks of sowing, the test plants were treated in the 2-3 leaf stage. The tested compounds of the present invention were respectively dissolved in acetone, then added with Tween 80 and 1.5 liter/ha of emulsifiable concentrate of methyl oleate as synergist, diluted with a certain amount of water to obtain a solution with a certain concentration, and sprayed with a spray tower onto the plants. After the application, the plants were cultured for 3 weeks in the greenhouse, and then the experimental results of the weeding were counted. The doses of the used compounds were 500, 250, 125, 60, 15, 7.5 g a.i./ha, and the averages were obtained by repeating for three times.

Beckmannia syzigachne = tested on: Beckmannia syzigachne
Excerpt: as §1, §2, §3, §4

Conyza japonica = tested on: Conyza japonica
Excerpt: as §1, §2, §3, §4

Rorippa indica = tested on: Rorippa indica
Excerpt: as §1, §2, §3, §4

Structure (SMILES) | weeding effect in post-emergence stage, Alopecurus japonicus (activity level) (Alopecurus japonicus; dose 125 g a.i./ha) | weeding effect in post-emergence stage, Beckmannia syzigachne (activity level) (Beckmannia syzigachne; dose 125 g a.i./ha) | weeding effect in post-emergence stage, Conyza japonica (activity level) (Conyza japonica; dose 125 g a.i./ha) | weeding effect in post-emergence stage, Rorippa indica (activity level) (Rorippa indica; dose 125 g a.i./ha) | weeding effect in post-emergence stage, Alopecurus japonicus (activity level) (Alopecurus japonicus; dose 15 g a.i./ha) | weeding effect in post-emergence stage, Beckmannia syzigachne (activity level) (Beckmannia syzigachne; dose 15 g a.i./ha) | weeding effect in post-emergence stage, Conyza japonica (activity level) (Conyza japonica; dose 15 g a.i./ha) | weeding effect in post-emergence stage, Rorippa indica (activity level) (Rorippa indica; dose 15 g a.i./ha)
CCOC(=O)COC(C)C1(C(=O)OCC)CC(c2cc(-n3c(=O)n(C)c(=S)n(C)c3=O)c(F)cc2Cl)=NO1 (mixture of isomers) [Compound 55] | 5 (Level 5: growth control rate is above 85%) | 5 (Level 5: growth control rate is above 85%) | 5 (Level 5: growth control rate is above 85%) | 5 (Level 5: growth control rate is above 85%) |  |  |  | 
CCOC(=O)C1(CC)CC(c2cc(-n3c(=O)n(C)c(=S)n(C)c3=O)c(F)cc2Cl)=NO1 (racemic) [Compound 3] | 5 (Level 5: growth control rate is above 85%) | 5 (Level 5: growth control rate is above 85%) | 5 (Level 5: growth control rate is above 85%) | 5 (Level 5: growth control rate is above 85%) | 5 (Level 5: growth control rate is above 85%) | 5 (Level 5: growth control rate is above 85%) | 5 (Level 5: growth control rate is above 85%) | 5 (Level 5: growth control rate is above 85%)
CCCC1(C(=O)OCC)CC(c2cc(-n3c(=O)n(C)c(=S)n(C)c3=O)c(F)cc2Cl)=NO1 (racemic) [Compound 4] | 5 (Level 5: growth control rate is above 85%) | 5 (Level 5: growth control rate is above 85%) | 5 (Level 5: growth control rate is above 85%) | 5 (Level 5: growth control rate is above 85%) | 5 (Level 5: growth control rate is above 85%) | 4 (Level 4: growth control rate is greater than or equal to 60% and less than 85%) | 4 (Level 4: growth control rate is greater than or equal to 60% and less than 85%) | 5 (Level 5: growth control rate is above 85%)
CCOC(=O)C1(C(C)C)CC(c2cc(-n3c(=O)n(C)c(=S)n(C)c3=O)c(F)cc2Cl)=NO1 (racemic) [Compound 5] | 5 (Level 5: growth control rate is above 85%) | 5 (Level 5: growth control rate is above 85%) | 5 (Level 5: growth control rate is above 85%) | 5 (Level 5: growth control rate is above 85%) | 5 (Level 5: growth control rate is above 85%) | 4 (Level 4: growth control rate is greater than or equal to 60% and less than 85%) | 4 (Level 4: growth control rate is greater than or equal to 60% and less than 85%) | 5 (Level 5: growth control rate is above 85%)
CCCCC1(C(=O)OCC)CC(c2cc(-n3c(=O)n(C)c(=S)n(C)c3=O)c(F)cc2Cl)=NO1 (racemic) [Compound 6] | 5 (Level 5: growth control rate is above 85%) | 5 (Level 5: growth control rate is above 85%) | 5 (Level 5: growth control rate is above 85%) | 5 (Level 5: growth control rate is above 85%) | 5 (Level 5: growth control rate is above 85%) | 5 (Level 5: growth control rate is above 85%) | 5 (Level 5: growth control rate is above 85%) | 5 (Level 5: growth control rate is above 85%)
CCOC(=O)C1(C2CC2)CC(c2cc(-n3c(=O)n(C)c(=S)n(C)c3=O)c(F)cc2Cl)=NO1 (racemic) [Compound 17] | 5 (Level 5: growth control rate is above 85%) | 5 (Level 5: growth control rate is above 85%) | 5 (Level 5: growth control rate is above 85%) | 5 (Level 5: growth control rate is above 85%) | 5 (Level 5: growth control rate is above 85%) | 5 (Level 5: growth control rate is above 85%) | 5 (Level 5: growth control rate is above 85%) | 5 (Level 5: growth control rate is above 85%)
CCOC(=O)C1(CC2CC2)CC(c2cc(-n3c(=O)n(C)c(=S)n(C)c3=O)c(F)cc2Cl)=NO1 (racemic) [Compound 26] | 5 (Level 5: growth control rate is above 85%) | 5 (Level 5: growth control rate is above 85%) | 5 (Level 5: growth control rate is above 85%) | 5 (Level 5: growth control rate is above 85%) | 5 (Level 5: growth control rate is above 85%) | 5 (Level 5: growth control rate is above 85%) | 5 (Level 5: growth control rate is above 85%) | 5 (Level 5: growth control rate is above 85%)
CCOC(=O)C1(CBr)CC(c2cc(-n3c(=O)n(C)c(=S)n(C)c3=O)c(F)cc2Cl)=NO1 (racemic) [Compound 31] | 5 (Level 5: growth control rate is above 85%) | 5 (Level 5: growth control rate is above 85%) | 5 (Level 5: growth control rate is above 85%) | 5 (Level 5: growth control rate is above 85%) |  |  |  | 
CCOC(=O)C1(C(F)(F)F)CC(c2cc(-n3c(=O)n(C)c(=S)n(C)c3=O)c(F)cc2Cl)=NO1 (racemic) [Compound 33] | 5 (Level 5: growth control rate is above 85%) | 5 (Level 5: growth control rate is above 85%) | 5 (Level 5: growth control rate is above 85%) | 5 (Level 5: growth control rate is above 85%) |  |  |  | 
CCOC(=O)C1(CCF)CC(c2cc(-n3c(=O)n(C)c(=S)n(C)c3=O)c(F)cc2Cl)=NO1 (racemic) [Compound 34] | 5 (Level 5: growth control rate is above 85%) | 5 (Level 5: growth control rate is above 85%) | 5 (Level 5: growth control rate is above 85%) | 5 (Level 5: growth control rate is above 85%) | 5 (Level 5: growth control rate is above 85%) | 5 (Level 5: growth control rate is above 85%) | 5 (Level 5: growth control rate is above 85%) | 5 (Level 5: growth control rate is above 85%)
CCOC(=O)C1(CC(F)F)CC(c2cc(-n3c(=O)n(C)c(=S)n(C)c3=O)c(F)cc2Cl)=NO1 (racemic) [Compound 35] | 5 (Level 5: growth control rate is above 85%) | 5 (Level 5: growth control rate is above 85%) | 5 (Level 5: growth control rate is above 85%) | 5 (Level 5: growth control rate is above 85%) |  |  | 4 (Level 4: growth control rate is greater than or equal to 60% and less than 85%) | 5 (Level 5: growth control rate is above 85%)
